For three compounds, IC50 results are on record in US20220370453A1 (Storm Therapeutics Ltd, priority 2019, published 2022).

As usually defined, the IC50 is the concentration at which inhibition is half-maximal.

Molecules are shown by their SMILES.

Experiment [1] addresses T1, BCDIN3D (Homo sapiens, UniProt Q7Z5W3).
T1 sequence (Q7Z5W3 1-292): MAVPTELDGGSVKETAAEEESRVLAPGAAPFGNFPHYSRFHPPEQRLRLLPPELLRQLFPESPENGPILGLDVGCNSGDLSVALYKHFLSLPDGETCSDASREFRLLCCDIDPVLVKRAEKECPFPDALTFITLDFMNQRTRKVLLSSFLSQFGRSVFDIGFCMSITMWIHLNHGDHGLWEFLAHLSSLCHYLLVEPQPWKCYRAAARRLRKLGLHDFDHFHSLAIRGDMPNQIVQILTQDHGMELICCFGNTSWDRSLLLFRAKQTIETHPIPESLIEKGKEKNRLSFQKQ
Put plainly: BCDIN3D IC50 RFMS (RapidFire) assay with mini-helix. Type of experiment: biochemical. To be noted: mini-helix 0.2 μM and SAM 6 μM as substrates, 25 nM enzyme, 1 hr at 37° C. The method in brief:
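SAH formation was measured by RapidFire mass spectrometry with D4- and 13C10-SAH internal standards after TCA quench. Substrates 6 μM SAM and 0.2 μM mini-helix reacted 1 h at 37 °C with 25 nM enzyme, which had been preincubated 10 min with compound (1% DMSO) in Tris pH 8.0 buffer with DTT, EDTA, BSA.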

The target in experiment [2] is T1, BCDIN3D. Put plainly: BCDIN3D InCellPulse thermal stability assay in transfected A549 cells. The experiment is classed as cell-based. The note with it: A549 cells transiently transfected with ePL-BCDIN3D, 1 h pre-incubation, heat shock 58° C. 15 min. The method in brief: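 Thermal stabilisation read-out: after a 15 min 58 °C heat shock, ePL-tagged BCDIN3D in transiently transfected A549 cells (1500/well) was quantified by enzyme-fragment complementation luminescence. Compounds were pre-incubated with cells 1 h at 37 °C, 0.6% DMSO final.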

`Cn1ncc2c(NC(C)(C)C)nc(NC[C@@H](N)c3ccccc3F)nc21` [Compound 7.11, N6-[(2S)-2-amino-2-(2-fluorophenyl)ethyl]-N4-tert-butyl-1-methyl-pyrazolo[3,4-d]pyrimidine-4,6-diamine]: the IC50 came out at 0.181 µM against BCDIN3D [1] and 4.18 µM against BCDIN3D [2].

With `Cc1ccc(CNc2nc(NC[C@@H](N)CF)nc3c2cnn3C)cc1Cl` [Compound 7.14, 6-N-[(2R)-2-amino-3-fluoropropyl]-4-N-[(3-chloro-4-methylphenyl)methyl]-1-methylpyrazolo[3,4-d]pyrimidine-4,6-diamine], the IC50 against BCDIN3D [1] was found to be 5.65 µM; against BCDIN3D [2], 6.32 µM.

With `Cn1ncc2c(NC(C)(C)C)nc(NC[C@H](N)c3ccc(F)cc3)nc21` [Compound 7.18, N6-[(2R)-2-amino-2-(4-fluorophenyl)ethyl]-N4-tert-butyl-1-methyl-1H-pyrazolo[3,4-d]pyrimidine-4,6-diamine], the IC50 at BCDIN3D [1] worked out at 0.33 µM; against BCDIN3D [2], 0.41 µM.
